In US12097261B2, “CDK2 degraders and uses thereof” (Kymera Therapeutics, Inc., priority 2021, dated 2024):

Columns and labels:
Type in all cases: cell-based
[1] = molecular target: T1, CCNE1 (Homo sapiens, UniProt P24864+P24941); experiment: CCNE1 degradation in MKN-1 cells by immunoblotting; settings: 24 h, by WB, read-out: Cyclin E1 DC50, (MKN-1 by WB)
T1 construct: endogenous in cells; host or cells: MKN-1
Description: CCNE1 Degradation in MKN-1 Cells
Gastric cancer cell line MKN-1 were cultured in 6-well plates in complete growth medium. A serial dilution of each compound was added to individual wells from a 2× stock solution, and cells were cultured for 24 hours. Following 24-hr incubation, cells were lysed with addition of chilled RIPA buffer supplemented with protease/phosphatase inhibitors followed by incubation for 20 minutes on ice. Lysates were clarified by centrifugation and 5×SDS loading buffer was added to the supernatant followed by heating to 100° C. for 10 minutes. An aliquot of the samples were separated by SDS-PAGE and transferred to a nitrocellulose membrane. Immunoblotting was performed according to standard procedures using anti-CCNE1 primary antibody (Abcam #ab33911) at 1:1000 dilution and IRDye 800CW goat anti-Rabbit secondary antibody (LICOR) and imaged using a LICOR Odyssey instrument. Blots were stained with anti-beta-Actin primary antibody (Cell Signaling Technology mAb 43700) for normalization. The normalized CCNE1/Actin values were calculated as a percent of DMSO treated cells and plotted to determine the concentration at which 50% of CCNE1 signal is decreased.

[2] = molecular target: T2, CDK2 (Homo sapiens, UniProt P24941); experiment: CDK2 degradation by immunoblotting in OVCAR-8 cells; settings: 24 h
T2 construct: endogenous in cells; host or cells: OVCAR-8
Description: (§1) CDK2 and CDK1 Degradation by Immunoblotting
(§2) Ovarian cancer cell line OVCAR-8 were cultured in 12-well plates in complete growth medium. A serial dilution of each compound was added to individual wells from a 2× stock solution, and cells were cultured for 24 hours. Cells were collected by centrifugation, and cell pellets lysed with addition of chilled RIPA buffer supplemented with protease/phosphatase inhibitors followed by incubation for 20 minutes on ice. Lysates were clarified by centrifugation and 5×SDS loading buffer was added to the supernatant followed by heating to 100° C. for 10 minutes. An aliquot of the samples were separated by SDS-PAGE and transferred to a nitrocellulose membrane. Immunoblotting was performed according to standard procedures using anti-CDK2 primary antibody (Abcam ab32147) at 1:1000 dilution and IRDye 800CW goat anti-Rabbit secondary antibody (LICOR) and imaged using a LICOR Odyssey instrument. Blots were stained with anti-beta-Actin primary antibody (Cell Signaling Technology mAb #4970) for normalization. The normalized CDK2/Actin values were calculated as a percent of DMSO treated cells and plotted to determine the concentration at which 50% of CDK2 signal is decreased (DC50). The determination of CDK1 degradation was determined similarly using anti-CDK1 primary antibody (Abcam ab131450).

[3] = molecular target: T3, CDK1 (Homo sapiens, UniProt P06493); experiment: CDK1 degradation by immunoblotting in OVCAR-8 cells; settings: 24 h
T3 construct: endogenous in cells; host or cells: OVCAR-8
T3 sequence (P06493 whole entry): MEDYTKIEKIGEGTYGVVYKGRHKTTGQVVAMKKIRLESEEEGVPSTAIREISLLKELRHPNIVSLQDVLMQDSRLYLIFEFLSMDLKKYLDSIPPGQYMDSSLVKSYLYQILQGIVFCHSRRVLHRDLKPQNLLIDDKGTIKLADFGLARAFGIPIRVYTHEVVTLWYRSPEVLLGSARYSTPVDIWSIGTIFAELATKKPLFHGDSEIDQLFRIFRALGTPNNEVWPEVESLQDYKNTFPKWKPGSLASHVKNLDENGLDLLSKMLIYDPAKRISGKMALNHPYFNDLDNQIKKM
Description: as §1, §2

| SMILES | DC50 [1] [µM] | DC50 [2] [µM] | DC50 [3] [µM] |
| --- | --- | --- | --- |
| CN[C@@H](C)C(=O)N[C@H](C(=O)N1CCC[C@H]1c1nc(C(=O)c2cccc(OCCCCCCCCCCCn3cc(C(=O)Nc4cc([C@H]5CC[C@@H](OC(=O)NC(C)C)C5)n[nH]4)cn3)c2)cs1)C1CCCCC1 [I-148, (1R,3S)-3-(5-(1-(11-(3-(2-((S)-1-((S)-2-cyclohexyl-2-((S)-2-(methylamino)propanamido)acetyl)pyrrolidin-2-yl)thiazole-4-carbonyl)phenoxy)undecyl)-1H-pyrazole-4-carboxamido)-1H-pyrazol-3-yl)cyclopentyl isopropylcarbamate] |  | 1 to 5 | 1 to 5 |
| CC(C)NC(=O)O[C@@H]1CC[C@H](c2cc(NC(=O)c3cnn(CCOCCOCCOCCOCCCc4ccc5c(c4)n(C)c(=O)n5C4CCC(=O)NC4=O)c3)[nH]n2)C1 (some centres unmarked) [I-77] |  | 0.1 to 1 | > 5 |
| CC(C)NC(=O)O[C@@H]1CC[C@H](c2cc(NC(=O)c3ccnn3CCOCCOCCOCCCc3ccc4c(c3)n(C)c(=O)n4C3CCC(=O)NC3=O)[nH]n2)C1 (some centres unmarked) [I-83] |  | 0.01 to 0.1 | > 5 |
| CC(C)NC(=O)O[C@@H]1CC[C@H](c2cc(NC(=O)c3ccnn3CCOCCOCCOCCOCCCc3ccc4c(c3)n(C)c(=O)n4C3CCC(=O)NC3=O)n[nH]2)C1 (some centres unmarked) [I-59] |  | 0.01 to 0.1 | > 5 |
| Cc1cc(S(=O)(=O)NCCOCCOCCOCCOCC(=O)N[C@H](C(=O)N2C[C@H](O)C[C@H]2C(=O)NCc2ccc(-c3scnc3C)cc2)C(C)(C)C)ccc1Nc1ncc2ccc(=O)n(C3CCCC3)c2n1 [I-139] |  | > 5 | > 5 |
| CC(C)NC(=O)O[C@@H]1CC[C@H](c2cc(NC(=O)c3cnn(CCCCCCCCCc4ccc5c(c4)n(C)c(=O)n5C4CCC(=O)NC4=O)c3)n[nH]2)C1 (some centres unmarked) [I-91] |  | 0.01 to 0.1 | > 5 |
| CC(C)NC(=O)O[C@@H]1CC[C@H](c2cc(NC(=O)Cc3cnn(CCCCCCCCCc4ccc5c(c4)n(C)c(=O)n5C4CCC(=O)NC4=O)c3)[nH]n2)C1 (some centres unmarked) [I-102] |  | 0.01 to 0.1 | 0.1 to 1 |
| CC(C)NC(=O)O[C@@H]1CC[C@H](c2cc(NC(=O)c3ccnn3CCOCCOCCOCCOCCCc3cccc4c3n(C)c(=O)n4C3CCC(=O)NC3=O)n[nH]2)C1 (some centres unmarked) [I-55] |  | 0.01 to 0.1 | > 5 |
| CC(C)NC(=O)O[C@@H]1CC[C@H](c2cc(NC(=O)c3cnn(CCCCCCCCCc4cccc5c4n(C)c(=O)n5C4CCC(=O)NC4=O)c3)[nH]n2)C1 (some centres unmarked) [I-92] |  | 0.01 to 0.1 | 1 to 5 |
| CC(C)NC(=O)O[C@@H]1CC[C@H](c2cc(NC(=O)c3cnn(CCCCCCCCCCCc4cccc5c4n(C)c(=O)n5C4CCC(=O)NC4=O)c3)[nH]n2)C1 (some centres unmarked) [I-97] |  | 0.01 to 0.1 | 1 to 5 |
| CC(C)NC(=O)O[C@@H]1CC[C@H](c2cc(NC(=O)c3cnn(CCCCCCCCCCCc4ccc5c(c4)n(C)c(=O)n5C4CCC(=O)NC4=O)c3)[nH]n2)C1 (some centres unmarked) [I-96] |  | 0.01 to 0.1 | > 5 |

Other lines, results leading:

| DC50 [1] [µM] | DC50 [2] [µM] | DC50 [3] [µM] | SMILES |
| --- | --- | --- | --- |
| < 0.01 | < 0.01 | 0.1 to 1 | Cc1cc(S(=O)(=O)NCCO[C@H]2CC[C@H](CN3CCC(c4ccc5c(c4)n(C)c(=O)n5C4CCC(=O)NC4=O)CC3)CC2)ccc1Nc1ncc2cc(Cl)c(=O)n(C3CCCC3)c2n1 (some centres unmarked) [I-108] |
| < 0.01 | < 0.01 | 0.1 to 1 | Cc1cc(S(=O)(=O)NCCO[C@H]2CC[C@H](CN3CCC(c4ccc5c(c4)n(C)c(=O)n5C4CCC(=O)NC4=O)CC3)CC2)ccc1Nc1ncc2ccc(=O)n(C3CCCC3)c2n1 (some centres unmarked) [I-109] |
|  | 0.01 to 0.1 | 1 to 5 | Cc1cc(S(=O)(=O)NCCOC2CC3(C2)CN(Cc2ccc4c(c2)n(C)c(=O)n4C2CCC(=O)NC2=O)C3)ccc1Nc1ncc2ccc(=O)n(C3CCCC3)c2n1 (centres unmarked) [I-111] |
|  | 0.01 to 0.1 | > 5 | CC(C)NC(=O)O[C@@H]1CC[C@H](c2cc(NC(=O)c3cnn(CCOCCOCCOCCCc4cccc5c4n(C)c(=O)n5C4CCC(=O)NC4=O)c3)n[nH]2)C1 (some centres unmarked) [I-72] |
|  | < 0.01 | 1 to 5 | Cc1cc(S(=O)(=O)NCCOC2CCC3(CC2)CCN(CCCc2ccc4c(c2)n(C)c(=O)n4C2CCC(=O)NC2=O)CC3)ccc1Nc1ncc2ccc(=O)n(C3CCCC3)c2n1 (centres unmarked) [I-124] |
|  | 0.01 to 0.1 | 1 to 5 | CC(C)NC(=O)O[C@@H]1CC[C@H](c2cc(NC(=O)Cc3cnn(CCCCCCCCCc4cccc5c4n(C)c(=O)n5C4CCC(=O)NC4=O)c3)[nH]n2)C1 (some centres unmarked) [I-104] |
| < 0.01 | < 0.01 | 0.1 to 1 | Cc1cc(S(=O)(=O)NCCO[C@H]2CC[C@H](N(C)CC3CCN(c4ccc5c(c4)n(C)c(=O)n5C4CCC(=O)NC4=O)CC3)CC2)ccc1Nc1ncc2ccc(=O)n(C3CCCC3)c2n1 (some centres unmarked) [I-117] |
|  | < 0.01 | 0.1 to 1 | CC(C)NC(=O)O[C@H]1CC[C@@H](c2cc(NC(=O)c3cc(COCCCCCCCCCc4ccn5c(N6CCC(=O)NC6=O)cnc5c4)nn3C)[nH]n2)C1 [I-145] |
|  | < 0.01 | > 5 | Cc1cc(S(=O)(=O)NCCOCCOCCOCCOCCCc2ccc3c(c2)n(C)c(=O)n3C2CCC(=O)NC2=O)ccc1Nc1ncc2cc(C(F)F)c(=O)n([C@@H]3CCC[C@@]3(C)O)c2n1 (some centres unmarked) [I-7] |
|  | < 0.01 | 1 to 5 | Cc1cc(S(=O)(=O)NCCOCCOCCCc2ccc3c(c2)n(C)c(=O)n3C2CCC(=O)NC2=O)ccc1Nc1ncc2ccc(=O)n(C3CCCC3)c2n1 (centres unmarked) [I-146] |
|  | < 0.01 | 1 to 5 | Cc1cc(S(=O)(=O)N2CCC(CN(C)C3CCN(c4cccc5c4n(C)c(=O)n5C4CCC(=O)NC4=O)CC3)CC2)ccc1Nc1ncc2ccc(=O)n(C3CCCC3)c2n1 (centres unmarked) [I-114] |
